This passage reports IC50 results from US20250171495A1, “MUTLI-TARGETED SERINE PROTEASE INHIBITORS FOR TREATMENT OF CANCER AND VIRAL INFECTION” (Washington University, priority 2023, published 2025).

Holding throughout (type): biochemical
One assay concerns the target TMPRSS2 (Homo sapiens, UniProt O15393). Kind of assay: Fluorogenic kinetic enzyme inhibitor assay, TMPRSS2. The arrangement: purchased Cusabio Technology CSB-YP023924HU.
In a further assay the target is T1, matriptase (Homo sapiens, UniProt Q9Y5Y6).
T1 construct: purchased R&D Systems 3946-SEB-010
T1 sequence (Q9Y5Y6 615-855 limits assumed): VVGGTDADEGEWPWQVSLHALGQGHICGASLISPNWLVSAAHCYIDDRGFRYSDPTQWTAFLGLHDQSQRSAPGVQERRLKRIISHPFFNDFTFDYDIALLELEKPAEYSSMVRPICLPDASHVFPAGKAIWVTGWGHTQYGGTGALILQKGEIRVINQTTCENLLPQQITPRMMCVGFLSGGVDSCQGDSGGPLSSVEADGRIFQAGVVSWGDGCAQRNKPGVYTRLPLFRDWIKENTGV
As to the kind of experiment: Fluorogenic kinetic enzyme inhibitor assay, matriptase.

For a further assay, the target named is T2, hepsin (Homo sapiens, UniProt P05981).
T2 construct: purchased R&D Systems 4776-SE-010
As to the kind of experiment: Fluorogenic kinetic enzyme inhibitor assay, hepsin.

SMILES strings stand for the structures. Like-named read-outs stand apart in the source and are kept apart here. A value given as a limit tells only on which side of the number the result lay.

As a reminder, the IC50 is the midpoint of a concentration-inhibition curve.

T2 sequence (P05981 163-417 limits assumed): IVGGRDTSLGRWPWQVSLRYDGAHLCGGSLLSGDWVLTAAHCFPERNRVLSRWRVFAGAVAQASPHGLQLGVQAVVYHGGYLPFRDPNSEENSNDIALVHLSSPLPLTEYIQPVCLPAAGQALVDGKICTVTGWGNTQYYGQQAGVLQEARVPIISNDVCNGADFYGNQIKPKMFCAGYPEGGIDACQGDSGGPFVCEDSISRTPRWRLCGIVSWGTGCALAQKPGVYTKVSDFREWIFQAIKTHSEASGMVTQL
T2 sequence (P05981 1-162 partner limits assumed): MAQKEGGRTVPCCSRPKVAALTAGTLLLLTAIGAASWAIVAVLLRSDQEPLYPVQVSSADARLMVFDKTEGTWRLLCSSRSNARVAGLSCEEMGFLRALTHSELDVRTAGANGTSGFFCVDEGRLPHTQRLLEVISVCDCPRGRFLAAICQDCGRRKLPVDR
Chain of TMPRSS2 (O15393 106-492 limits assumed): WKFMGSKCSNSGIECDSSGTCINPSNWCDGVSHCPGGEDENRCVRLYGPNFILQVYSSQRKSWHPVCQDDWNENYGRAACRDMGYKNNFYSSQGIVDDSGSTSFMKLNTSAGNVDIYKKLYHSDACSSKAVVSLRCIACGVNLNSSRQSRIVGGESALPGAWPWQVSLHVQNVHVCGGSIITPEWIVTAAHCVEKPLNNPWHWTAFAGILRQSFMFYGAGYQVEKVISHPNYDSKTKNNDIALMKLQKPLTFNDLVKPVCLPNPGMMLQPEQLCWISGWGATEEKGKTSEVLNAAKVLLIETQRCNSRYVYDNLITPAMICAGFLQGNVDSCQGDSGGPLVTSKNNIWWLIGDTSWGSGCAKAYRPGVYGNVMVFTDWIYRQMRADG

With `CC(=O)N[C@@H](CO)C(=O)NCc1ccc(CC(=O)N[C@@H](CC(C)C)C(=O)N[C@@H](CCCNC(=N)N)C(=O)c2nc3ccccc3s2)cc1` [AJS3200, N-[(S)-1-[(1,3-benzothiazol-2-yl)carbonyl]-4-guanidinobutyl](S)-2-{[(p-{[(S)-2-acetylamino-3-hydroxypropionylamino]methyl}phenyl)methyl]carbonylamino}-4-methylvaleramide], the results for the IC50 at TMPRSS2 (read-out: TMPRSS2 IC50), at matriptase (read-out: Matriptase IC50) and on hepsin (read-out: Hepsin IC50) were 0.376 nM, 9.52 nM and 2.81 nM, respectively.
Consider `CC(=O)N[C@@H](CO)C(=O)NCc1ccc(C(=O)N[C@@H](CC(C)C)C(=O)N[C@@H](CCCNC(=N)N)C(=O)c2nc3ccccc3s2)cc1` [AJS4016], for which the IC50 on TMPRSS2 (read-out: TMPRSS2 IC50) came to 0.067 nM; at matriptase (read-out: Matriptase IC50) it was 10.3 nM; at hepsin (read-out: Hepsin IC50), 21.8 nM.
With `CC(=O)N1C(C(=O)N[C@@H](CCC(=O)OC2CCCCC2)C(=O)N[C@@H](Cc2ccc(F)cc2)C(=O)N[C@@H](CCCNC(=N)N)C(=O)c2nc3ccccc3s2)CC2CCCCC21` (stereo partly drawn) [MF1064, cyclohexyl (S)-4-[(2R)-1-acetyloctahydro-2H-indol-2-ylcarbonylamino]-4-[N-(S)-2-(p-fluorophenyl)-1-[N-(S)-1-[(1,3-benzothiazol-2-yl)carbonyl]-4-guanidinobutylcarbamoyl]ethylcarbamoyl]butyrate], the IC50 on TMPRSS2 (read-out: TMPRSS2 IC50) is 0.004 nM; on matriptase, 1.23 nM; on hepsin (read-out: Hepsin IC50) it was 0.831 nM.
`CC(=O)N1c2ccccc2C[C@H]1C(=O)N[C@@H](CCC(=O)OC1CCCCC1)C(=O)N[C@@H](Cc1ccc(F)cc1)C(=O)N[C@@H](CCCNC(=N)N)C(=O)c1nc2ccccc2s1` [MF1065, cyclohexyl (S)-4-[(S)-1-acetyl-2-indolinylcarbonylamino]-4-[N-(S)-2-(p-fluorophenyl)-1-[N-(S)-1-[(1,3-benzothiazol-2-yl)carbonyl]-4-guanidinobutylcarbamoyl]ethylcarbamoyl]butyrate]: the IC50 was 0.062 nM against TMPRSS2, 3.49 nM on matriptase and 1.76 nM against hepsin.
Turning to `C=CCOC(=O)CC[C@H](NC(=O)[C@@H]1CC2CCCCC2N1C(C)=O)C(=O)N[C@@H](Cc1ccc(F)cc1)C(=O)N[C@@H](CCCNC(=N)N)C(=O)c1nc2ccccc2s1` (stereo partly drawn) [MF1068, allyl (S)-4-[(2S)-1-acetyloctahydro-2H-indol-2-ylcarbonylamino]-4-[N-(S)-2-(p-fluorophenyl)-1-[N-(S)-1-[(1,3-benzothiazol-2-yl)carbonyl]-4-guanidinobutylcarbamoyl]ethylcarbamoyl]butyrate], the IC50 on TMPRSS2 (read-out: TMPRSS2 IC50) was found to be 0.083 nM; against matriptase, 0.375 nM; at hepsin (read-out: Hepsin IC50), 0.308 nM.
Consider `N=C(N)NCCC[C@H](NC(=O)[C@H](Cc1ccccc1)NC(=O)[C@H](CCC(N)=O)NS(=O)(=O)c1ccccc1)C(=O)c1nc2ccccc2s1` [MF1101, N-[(S)-1-[N-(S)-1-[(1,3-benzothiazol-2-yl)carbonyl]-4-guanidinobutylcarbamoyl]-2-phenylethyl](S)-2-(phenylsulfonylamino) glutaramide], for which the half-maximal inhibitory concentration (IC50) at TMPRSS2 (read-out: TMPRSS2 IC50) amounted to 1.02 nM; on matriptase (read-out: Matriptase IC50), 2.89 nM; on hepsin (read-out: Hepsin IC50), 0.8 nM.
As for `N=C(N)NCCC[C@H](NC(=O)[C@H](Cc1ccccc1)NC(=O)[C@H](CCC(N)=O)NS(=O)(=O)C1CC1)C(=O)c1nc2ccccc2s1` [MF1104, N-[(S)-1-[N-(S)-1-[(1,3-benzothiazol-2-yl)carbonyl]-4-guanidinobutylcarbamoyl]-2-phenylethyl](S)-2-(cyclopropylsulfonylamino) glutaramide], the IC50 was found to be 0.273 nM on TMPRSS2 (read-out: TMPRSS2 IC50), 5.59 nM at matriptase (read-out: Matriptase IC50) and 1.07 nM at hepsin (read-out: Hepsin IC50).
On to `N=C(N)NCCC[C@H](NC(=O)[C@H](Cc1ccccc1)NC(=O)[C@H](CCC(N)=O)NS(=O)(=O)Cc1ccccc1)C(=O)c1nc2ccccc2s1` [MF1105, N-[(S)-1-[N-(S)-1-[(1,3-benzothiazol-2-yl)carbonyl]-4-guanidinobutylcarbamoyl]-2-phenylethyl](S)-2-(benzylsulfonylamino) glutaramide], for which the IC50 came out at 0.07 nM on TMPRSS2 (read-out: TMPRSS2 IC50), 1.48 nM at matriptase (read-out: Matriptase IC50) and 0.31 nM on hepsin (read-out: Hepsin IC50).
On to `CC(=O)N[C@@H](CCC(C)C)C(=O)N[C@@H](CCC(=O)OC1CCCCC1)C(=O)N[C@@H](Cc1ccc(F)cc1)C(=O)N[C@@H](CCCNC(=N)N)C(=O)c1nc2ccccc2s1` [MF1125, cyclohexyl (S)-4-[(S)-1-acetylamino-4-methylpentylcarbonylamino]-4-[N-(S)-2-(p-fluorophenyl)-1-[N-(S)-1-[(1,3-benzothiazol-2-yl)carbonyl]-4-guanidinobutylcarbamoyl]ethylcarbamoyl]butyrate], for which the figures for the IC50 at TMPRSS2, against matriptase and against hepsin were 0.085 nM, 3.05 nM and 3.5 nM, respectively.
On to `N=C(N)NCCC[C@H](NC(=O)[C@H](Cc1ccc(F)cc1)NC(=O)OCC1c2ccccc2-c2ccccc21)C(=O)c1nc2ccccc2s1` [MF1131, (S)-2-(p-fluorophenyl)-1-[N-(S)-1-[(1,3-benzothiazol-2-yl)carbonyl]-4-guanidinobutylcarbamoyl]ethyl (9H-fluoren-9-yl)methanecarbamate], for which the values for the half-inhibitory concentration (IC50) at TMPRSS2 (read-out: TMPRSS2 IC50), on matriptase (read-out: Matriptase IC50) and on hepsin (read-out: Hepsin IC50) were 14 nM, 967 nM and 1130 nM, respectively.
Turning to `N=C(N)NCCC[C@H](NC(=O)[C@H](Cc1ccc(F)c(F)c1)NC(=O)OCC1c2ccccc2-c2ccccc21)C(=O)c1nc2ccccc2s1` [MF1132, (S)-2-(3,4-difluorophenyl)-1-[N-(S)-1-[(1,3-benzothiazol-2-yl)carbonyl]-4-guanidinobutylcarbamoyl]ethyl (9H-fluoren-9-yl)methanecarbamate], the IC50 at TMPRSS2 (read-out: TMPRSS2 IC50) amounted to 28.6 nM; on matriptase (read-out: Matriptase IC50) it was 144 nM; on hepsin (read-out: Hepsin IC50), 231 nM.
On to `N=C(N)NCCC[C@H](NC(=O)[C@H](Cc1cccc(Cl)c1)NC(=O)OCC1c2ccccc2-c2ccccc21)C(=O)c1nc2ccccc2s1` [MF1134, (S)-2-(m-chlorophenyl)-1-[N-(S)-1-[(1,3-benzothiazol-2-yl)carbonyl]-4-guanidinobutylcarbamoyl] ethyl (9H-fluoren-9-yl)methanecarbamate], for which the IC50 at TMPRSS2 (read-out: TMPRSS2 IC50) is 6.3 nM; at matriptase (read-out: Matriptase IC50) it was more than 20000 nM; at hepsin (read-out: Hepsin IC50) it was 1630 nM.
On to `N=C(N)NCCC[C@H](NC(=O)[C@H](CCCCNC(=O)OCc1ccccc1Cl)NC(=O)OCC1c2ccccc2-c2ccccc21)C(=O)c1nc2ccccc2s1` [MF1151, (S)-5-{[(o-chlorophenyl)methyl] (oxycarbonylamino)}-1-[N-(S)-1-[(1,3-benzothiazol-2-yl)carbonyl]-4-guanidinobutylcarbamoyl] pentyl (9H-fluoren-9-yl)methanecarbamate], for which the IC50 on TMPRSS2 (read-out: TMPRSS2 IC50) turned out to be 283 nM; on matriptase (read-out: Matriptase IC50), 11.1 nM.
For `N=C(N)NCCC[C@H](NC(=O)[C@@H](NC(=O)OCc1ccccc1)C1Cc2ccccc2C1)C(=O)c1nc2ccccc2s1` [MF2008, (S)-(2-indanyl)[N-(S)-1-[(1,3-benzothiazol-2-yl)carbonyl]-4-guanidinobutylcarbamoyl] methyl-phenylmethanecarbamate], the results for the IC50 on TMPRSS2 (read-out: TMPRSS2 IC50) and at matriptase (read-out: Matriptase IC50) were 0.303 nM and 75.3 nM, respectively.
As for `CC(C)(C)C[C@H](NC(=O)OCc1ccccc1)C(=O)N[C@@H](CCCNC(=N)N)C(=O)c1nc2ccccc2s1` [MF2009, (S)-3,3-dimethyl-1-[N-(S)-1-[(1,3-benzothiazol-2-yl)carbonyl]-4-guanidinobutylcarbamoyl] butyl-phenylmethanecarbamate], the results for the IC50 on TMPRSS2 (read-out: TMPRSS2 IC50) and at matriptase (read-out: Matriptase IC50) were 614 nM and more than 20000 nM, respectively.
As to `N=C(N)NCCC[C@H](NC(=O)[C@H](Cc1ccc2ccccc2c1)NC(=O)OCC1c2ccccc2-c2ccccc21)C(=O)c1nc2ccccc2s1` [MF2012, (S)-2-(2-naphthyl)-1-[N-(S)-1-[(1,3-benzothiazol-2-yl)carbonyl]-4-guanidinobutylcarbamoyl] ethyl (9H-fluoren-9-yl)methanecarbamate], the half-maximal inhibitory concentration (IC50) was 187 nM at TMPRSS2 (read-out: TMPRSS2 IC50) and more than 20000 nM at matriptase (read-out: Matriptase IC50).
For the compound `N=C(N)NCCC[C@H](NC(=O)[C@H](Cc1ccccc1)NC(=O)[C@H](N)Cc1c[nH]c2ccccc12)C(=O)c1nc2ccccc2s1` [PK-1-18A1, N-[(S)-1-[(1,3-benzothiazol-2-yl)carbonyl]-4-guanidinobutyl](S)-2-[(R)-2-amino-3-(3-indolyl)propionylamino]-3-phenylpropionamide], at TMPRSS2 (read-out: TMPRSS2 IC50), the IC50 came out at 25.8 nM.
Regarding `N=C(N)NCCC[C@H](NC(=O)[C@H](Cc1ccccc1)NC(=O)[C@H](N)Cc1c[nH]c2ccccc12)C(=O)c1nc2ccc(C(=O)O)cc2s1` [PK-1-45A1, 2-[(S)-2-[(S)-2-[(R)-2-amino-3-(3-indolyl)propionylamino]-3-phenylpropionylamino]-5-guanidinovaleryl]-1,3-benzothiazole-6-carboxylic acid], the IC50 on TMPRSS2 (read-out: TMPRSS2 IC50) was 1.94 nM.
Consider `CC(=O)N[C@H](Cc1c[nH]c2ccccc12)C(=O)N[C@@H](CC(C)C)C(=O)N[C@@H](CCCNC(=N)N)C(=O)c1nc2ccc(C(=O)O)cc2s1` [PK-1-94, 2-[(S)-2-[(S)-2-[(R)-2-acetylamino-3-(3-indolyl)propionylamino]-4-methylvalerylamino]-5-guanidinovaleryl]-1,3-benzothiazole-6-carboxylic acid], for which the IC50 on TMPRSS2 (read-out: TMPRSS2 IC50) amounted to 1.91 nM.
For `CC(=O)N[C@H]1Cc2ccc(cc2)Oc2ccc(cc2)C[C@@H](C(=O)N[C@@H](CCCNC(=N)N)C(=O)c2nc3ccccc3s2)NC(=O)[C@H](CC(C)C)NC1=O` [VD5076B, N-[(S)-1-[(1,3-benzothiazol-2-yl)carbonyl]-4-guanidinobutyl]-(8S,11S,14S)-14-acetylamino-11-isobutyl-10,13-dioxo-2-oxa-9,12-diazatricyclo[14.2.2.2^3,^6]docosa-1(18),3,5,16,19,21-hexaene-8-carboxamide], at TMPRSS2 (read-out: TMPRSS2 IC50), the IC50 stood at 1.25 nM.
